Laboratory results taken from paper PMC5456383 (PLoS ONE, 2017).
Like-named read-outs stand apart in the source and are kept apart here.

Assays:
[1] = Population pharmacokinetic modeling of caspofungin plasma concentrations in healthy cats (HPLC-MS/MS, NONMEM)
Description: (§1) Cats were housed individually and acclimatized to the clinical environment for three days prior to the start of the study with free access to food and water.
(§2) For drug administration, a peripheral catheter (22G IV radiopaque catheter; OPTIVA®, Smiths Medical International Ltd, Lanchashire, UK) was placed into a cephalic vein.
(§3) Blood samples were immediately centrifuged (12, 000 g for 5 min) and plasma was stored at -80°C until assay.
Pharmacokinetic model development employed nonlinear mixed-effects modeling using NONMEM version 7.3 [17], with the Wings for NONMEM 7.3interface (http://wfn.sourceforge.net) and IFort compiler. […] Data manipulation and post-run processing of NONMEM output was conducted using the R data analysis language (Version 3.2.2) and the packages ggplot2, GGally, foreign, tidyr, Hmisc, gdata, doBy, plyr, grid, stringr with associated dependencies [17–28].
The base pharmacokinetic model was developed in a step-wise manner. Pharmacokinetic models were coded using the built-in ADVAN subroutines of NONMEM. Linear kinetic models with 1 and 2 compartments were evaluated. The First Order Conditional Estimation (FOCE) method was used to fit models. The base model was selected on the basis of mechanistic plausibility, visual inspection of goodness-of-fit diagnostic plots, the precision of parameter estimates (se% <30% for fixed, <50% for random effects parameters), and the lowest value of the Akaike’s information criterion (AIC; Eq 1) in accordance with the number of parameters and the final NONMEM derived objective function value (OBJ). The base model was also required to pass the covariance step.
Unless stated otherwise, population parameter variability (PPV) was represented using an exponential error model (Eq 2): Pj=TVP*e^ηj (2) where Pj is the individual value for the parameter in the j^th individual, TVP is the typical population value of P and ηj is an independent random variable with a mean of zero and variance ω^2. PPV was systematically examined on each fixed-effect parameter. Models with and without covariance for P were investigated using the OMEGA BLOCK functionality of NONMEM.
The influence of the additive component of the error was also examined by a comparison with a proportional only error model.

[2] = Tolerability of IV caspofungin in healthy cats (physical examination, blood count, biochemistry)
Description: as §1, §2, §3

[3] = test system: invasive pulmonary aspergillosis; conditions: cited from earlier work
[4] = test system: clinical isolates of A. felis from cats with invasive aspergillosis; conditions: cited from earlier work
Description: Echinocandins have concentration-dependent activity against Aspergillus spp.

[5] = caspofungin-treated patients with candidemia; cited from earlier work
[6] = set-up: Time at which steady state was achieved: dose or concentration left out as unconfirmed; conditions: cited from earlier work
[7] = concentration independent, cited from earlier work
Description: The relationship between antifungal in vivo susceptibility, dosages, drug concentrations within various body compartments and toxicological effects are not completely understood. […] For example, in sino-orbital aspergillosis systemic therapy may not be sufficient to penetrate the site of infection and reduce fungal burden. In addition, our work here is based upon total plasma concentra ...

[8] = cats, 1 mg/kg IV infusion over 1 h, two-compartment model, scaled to 4 kg

CC[C@H](C)C[C@H](C)CCCCCCCCC(=O)N[C@H]1C[C@@H](O)[C@@H](NCCN)NC(=O)[C@@H]2[C@@H](O)CCN2C(=O)[C@H]([C@H](O)CCN)NC(=O)[C@H]([C@H](O)[C@@H](O)c2ccc(O)cc2)NC(=O)[C@@H]2C[C@@H](O)CN2C(=O)[C@H]([C@@H](C)O)NC1=O [caspofungin, caspofungin acetate]
clearance ([1]; both, domestic shorthair, plasma, iv, 1 mg/kg): 0.292 mL/min
Q (mL/h) * (WT/4)^0.75, inter-compartmental clearance, population estimate [1, 8]: 150 mL/h
V1 (mL) * (WT/4), central volume of distribution, population estimate [1, 8]: 214 mL
V2 (mL) * (WT/4), peripheral volume of distribution, population estimate [1, 8]: 143 mL
Time at which steady state was achieved ([1]; cats, daily IV dosing): approximately 72 h
Liver enzyme elevations ([2]; healthy cats, 1 mg/kg IV daily): did not occur in any cats
Tolerability ([2]; healthy cats, 1 mg/kg IV over 1 h, single and 7 daily doses): well tolerated
Changes on complete blood counts and multiple biochemical analyses ([2]; healthy cats, after consecutive daily dosing 1 mg/kg IV): no changes
Body temperature during minor transient hyperthermia ([2]; one cat, during the first infusion only, reference range 37.5–39.1°C): 39.6–39.8 °C
Diarrhoea ([2]; one cat, resolved within 24 h of the final infusion): mild transient diarrhoea
Fungal burden versus mice dosed with 1 mg/kg q6 h ([3]; mice dosed with 1 mg/kg q24 h or 2 mg/kg q48 h): significantly lower fungal burdens
Effect on fungal growth at higher doses ([3]; mice, 4 mg/kg, Cmax: MEC >20): paradoxical effect on fungal growth resulting in increased burdens
MEC ([4]; clinical isolates of A. felis from cats, all except one isolate): less than 0.06 μg/mL
MEC ([4]; one clinical isolate of A. felis): 2 µg/mL
Frequency of chills [5]: 5.3%
Frequency of fever [5]: 7.5%
Frequency of liver enzyme elevations (ALT, AST or ALP) [5]: 13.9%
Frequency of nausea or vomiting [5]: 5.3%
Frequency of phlebitis [5]: 3.5%
Clearance in the typical 70 kg human [6]: 10 mL/min
Trough concentration at steady state ([6]; humans given 70 mg/kg of caspofungin daily): 2.57 ± 0.34 µg/mL
Time at which steady state was achieved ([6]; humans given of caspofungin daily): during the third week of administration
Unbound fraction in serum ([7]; human serum): 3–4%
Unbound fraction in serum ([7]; mouse serum): 3–4%
